Results from article PMC11770318, “Isolation and characterization of a β-galactosidase from Lactobacillus helveticus for industrial processing” (JDS Communications, 2024).

Key:
[1] = target: T1, β-galactosidase (LacLM) from Lactobacillus helveticus OSU-PECh-4A (Lactobacillus helveticus, UniProt Q7WTB3+Q7WTB4); test: inhibition of lactose hydrolysis; format: biochemical; settings: end product; substrate lactose; 50 mM sodium phosphate pH 7.0, 37°C
T1 construct: gene lacL; native, purified from Lb. helveticus OSU-PECh-4A by diafiltration and size-exclusion chromatography; GH2 heterodimer, 110 kDa (74 + 36 kDa subunits); 13 peptides identified by LC-MS; no tag
T1 sequence (Q7WTB4 whole entry): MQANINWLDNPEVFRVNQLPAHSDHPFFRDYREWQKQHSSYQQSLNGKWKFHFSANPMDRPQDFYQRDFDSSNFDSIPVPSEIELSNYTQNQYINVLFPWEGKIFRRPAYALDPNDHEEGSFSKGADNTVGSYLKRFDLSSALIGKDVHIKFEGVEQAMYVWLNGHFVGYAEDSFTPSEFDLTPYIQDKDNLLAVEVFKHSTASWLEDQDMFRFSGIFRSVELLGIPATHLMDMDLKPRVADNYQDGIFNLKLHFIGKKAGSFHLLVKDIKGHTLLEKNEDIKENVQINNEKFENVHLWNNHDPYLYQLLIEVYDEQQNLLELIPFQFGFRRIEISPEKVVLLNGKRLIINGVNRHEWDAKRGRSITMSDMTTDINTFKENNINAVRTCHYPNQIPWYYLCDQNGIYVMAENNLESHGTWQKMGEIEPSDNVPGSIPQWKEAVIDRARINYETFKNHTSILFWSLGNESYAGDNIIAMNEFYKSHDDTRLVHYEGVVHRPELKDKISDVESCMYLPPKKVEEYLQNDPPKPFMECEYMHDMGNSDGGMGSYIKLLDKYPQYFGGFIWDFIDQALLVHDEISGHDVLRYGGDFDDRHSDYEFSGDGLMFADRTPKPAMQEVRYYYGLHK
T1 sequence (Q7WTB3 whole entry): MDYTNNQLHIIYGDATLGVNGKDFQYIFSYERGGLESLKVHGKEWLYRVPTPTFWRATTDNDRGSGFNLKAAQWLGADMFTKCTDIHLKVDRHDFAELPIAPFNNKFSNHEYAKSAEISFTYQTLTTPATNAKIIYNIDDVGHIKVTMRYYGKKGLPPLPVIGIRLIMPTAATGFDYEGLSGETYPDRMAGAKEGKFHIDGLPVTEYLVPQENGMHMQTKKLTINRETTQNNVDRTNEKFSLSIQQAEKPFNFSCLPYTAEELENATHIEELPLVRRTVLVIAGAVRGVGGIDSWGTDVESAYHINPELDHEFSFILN

[2] = target: T1, β-galactosidase (LacLM) from Lactobacillus helveticus OSU-PECh-4A; test: inhibition of oNPG hydrolysis; format: biochemical; settings: end product; substrate oNPG; 50 mM sodium phosphate pH 7.0, 37°C; allosteric (authors' interpretation)

Row | SMILES | % loss of initial activity at 1 mM [1] [%] | % decrease of activity below 50 mM [2] [%]
1 | OC[C@H]1OC(O)[C@H](O)[C@@H](O)[C@H]1O (stereo partly drawn) [D-galactose] | 30 | –
2 | OC[C@H]1OC(O)[C@H](O)[C@@H](O)[C@@H]1O (stereo partly drawn) [D-glucose] | – | 30
